Assay results as given in patent US20220175777A1, “Inhibitors of Multidrug Resistance Transporter P-Glycoprotein” (Southern Methodist University, priority 2014, published 2022).

Tests used:
P-gp = P-gp (Homo sapiens, UniProt P08183); details: for Transport substrate for P-gp: not told
Method: Stimulation of basal ATPase by 29-variants was used as an indicator that a compound may be a P-gp transport substrate. Effects on stimulated P-gp ATPase activity indicated whether a compound directly interfered with ATP usage by the protein (***, p<0.001; **, p<0.01; *, p<0.1; NS, not significant). Quantitative cellular accumulation of 29-variants was performed using LC-MS/MS and is presented as a ratio of the cellular amounts of 29-variants in the presence of P-gp inhibitor, tariquidar, divided by amounts accumulated in its absence. […] Binding of an ATP analog, SL-ATP, to P-gp was used to determine whether ATP binding to P-gp was affected by the 29-variants. Values+/−standard deviations are shown for at least three different P-gp preparations and three independent SL-ATP titration experiments. The values for SL-ATP binding in the presence of 29 were taken directly from Brewer et al. (2014).
Intracellular accumulation of compound 29 variants. Cell accumulation assays for each of the 29 variants were performed as in reference^28 to more directly assess whether the compounds were indeed transport substrates for P-gp.

[1] = biological target: T1, Cysteineless Mouse MDR3 P-glycoprotein (Mus musculus, UniProt P21447, C1070A/C1121A/C1223A/C133A/C427A/C638A/C669A/C713A/C952A); test: SL-ATP binding to P-gp by ESR spectroscopy; details: SL-ATP titration in presence of compound
T1 construct: made in house; host or cells: Pichia pastoris
T1 sequence (P21447 whole entry C133A/C427A/C638A/C669A/C713A/C952A/C1070A/C1121A/C1223A): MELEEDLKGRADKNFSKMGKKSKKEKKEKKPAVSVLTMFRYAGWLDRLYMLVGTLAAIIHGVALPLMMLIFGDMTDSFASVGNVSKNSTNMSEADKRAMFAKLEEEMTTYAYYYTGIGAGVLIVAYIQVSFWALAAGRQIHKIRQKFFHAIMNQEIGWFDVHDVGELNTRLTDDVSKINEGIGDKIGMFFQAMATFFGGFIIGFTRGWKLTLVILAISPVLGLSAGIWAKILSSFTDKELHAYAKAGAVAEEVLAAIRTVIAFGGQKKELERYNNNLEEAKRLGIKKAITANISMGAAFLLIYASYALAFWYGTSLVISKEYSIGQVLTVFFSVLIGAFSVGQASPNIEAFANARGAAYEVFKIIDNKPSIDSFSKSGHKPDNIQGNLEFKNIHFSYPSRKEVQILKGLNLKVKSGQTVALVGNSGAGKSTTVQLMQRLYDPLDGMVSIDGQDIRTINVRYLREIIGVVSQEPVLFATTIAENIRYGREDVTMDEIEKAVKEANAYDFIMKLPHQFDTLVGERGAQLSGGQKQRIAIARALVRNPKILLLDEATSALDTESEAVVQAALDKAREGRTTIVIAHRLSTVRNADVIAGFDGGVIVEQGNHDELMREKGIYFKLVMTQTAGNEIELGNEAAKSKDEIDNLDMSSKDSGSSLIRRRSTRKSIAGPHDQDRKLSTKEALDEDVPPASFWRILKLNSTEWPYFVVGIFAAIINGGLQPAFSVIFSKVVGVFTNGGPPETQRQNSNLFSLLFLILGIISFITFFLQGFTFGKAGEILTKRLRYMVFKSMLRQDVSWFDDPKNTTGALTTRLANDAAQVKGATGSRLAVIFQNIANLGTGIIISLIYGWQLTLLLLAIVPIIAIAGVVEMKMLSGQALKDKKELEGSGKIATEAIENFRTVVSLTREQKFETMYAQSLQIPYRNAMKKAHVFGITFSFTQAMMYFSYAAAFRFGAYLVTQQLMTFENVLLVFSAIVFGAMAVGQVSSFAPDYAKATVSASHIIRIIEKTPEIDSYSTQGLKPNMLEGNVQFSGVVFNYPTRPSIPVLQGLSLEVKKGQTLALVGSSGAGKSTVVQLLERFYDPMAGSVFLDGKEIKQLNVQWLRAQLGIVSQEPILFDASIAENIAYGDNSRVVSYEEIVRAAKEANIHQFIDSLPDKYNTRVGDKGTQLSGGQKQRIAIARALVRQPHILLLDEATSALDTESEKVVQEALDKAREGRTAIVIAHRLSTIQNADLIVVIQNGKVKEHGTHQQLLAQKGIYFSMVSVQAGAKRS
Source text: Determination of the possible mode of ATP hydrolysis inhibition by the identified P-glycoprotein inhibitors. The mode of hydrolysis of ATP by P-glycoprotein was investigated by measuring the maximal binding stoichiometry and binding affinity of an analog of ATP, SL-ATP, and by Electron Spin Resonance (ESR) spectroscopy, similar to in both the presence and absence of the identified inhibitors.
The high-field signal of the freely mobile, unbound SL-ATP is compared and is used to calculate the amount of ATP-analog bound to P-glycoprotein. Binding of SL-ATP in the absence of any P-glycoprotein inhibitor saturated at about 2 mol of SL-nucleotide bounds per mol of P-glycoprotein.
FIGS. 2A-2D are plots showing the effects of P-glycoprotein ATP hydrolysis inhibitors on nucleotide binding. Between 30 and 50 microM Pgp were incubated with 50 microM inhibitor compound. Increasing amounts of SL-ATP were added. The ESR signal of the free SL-ATP in the presence of P-glycoprotein and inhibitor was compared to that in the absence of P-glycoprotein. The graphs represent at least 3 individual studies each using 3 to 5 different P-glycoprotein preparations.

[2] = biological target: T1, Cysteineless Mouse MDR3 P-glycoprotein; test: ATP hydrolysis by purified P-glycoprotein, basal and verapamil-stimulated; type: biochemical; details: for Stimulated ATPase (% of DMSO): in the presence of verapamil; for Stimulated ATPase (% of DMSO) / Basal ATPase (% of DMSO): ± standard deviation; for Basal ATPase (% of DMSO) / Effect on basal ATPase: without added transport substrate
Source text: The efficacy of molecules identified using in silico methods to function as potential inhibitors of P-glycoprotein was initially tested with regard to their capability to inhibit ATP hydrolysis by purified P-glycoprotein. For this purpose, a well-established activity assay for ATP hydrolyzing enzymes that uses the oxidation of NADH to NAD+ through coupling the reactions of pyruvate kinase and lactate dehydrogenase to the hydrolysis of ATP was adapted to medium throughput conditions on 96 well plates. […] In this set-up, the effects of potential small molecule inhibitors on the ATP hydrolysis activity of P-glycoprotein were tested in duplicate or triplicate and were repeated at least two times using different enzyme preparations.
The P-glycoprotein used in these assays was a close relative of the human P-glycoprotein that is found in mice. A mutant version of the mouse P-glycoprotein where all intrinsic cysteine amino acids had been replaced by alanine residues was recombinantly expressed in the yeast Pichia pastoris and used for these initial tests. […] Prior to testing the ATP-hydrolysis activity, P-glycoprotein was incubated with phosphatidyl choline for stabilization of the enzyme during the assay.
Different concentrations of the to-be-tested small molecules were added and pre-incubated at 37° C. The ATP hydrolysis reaction was then started by adding equal volume of double concentrated ATPase cocktail. The final ATP concentration in the reaction was 2 mM. The reaction was allowed to proceed for 20 minutes, the rate of ATP hydrolysis was calculated using the molar extinction coefficient of NADH, and the one-to-one relationship of ATP hydrolyzed and NADH oxidized.
Evaluation of mode of inhibition of P-glycoprotein by Group 1 and Group 2 variants of compound 29. To assess the mode of inhibition of P-gp by the novel variants of P-gp inhibitor 29, ATP hydrolysis by P-gp was evaluated in the presence or absence of the variants. […] Murine P-gp (MDR3) expressed in Pichia pastoris that had all naturally occurring cysteines replaced with alanine, was used^45, 46. It is widely assumed that the ATP hydrolytic rate of P-gp is stimulated in the presence of transport substrates when compared to ATP hydrolysis in the absence of transport substrates. Assays comparing these rates can therefore be useful not only in identifying inhibitors of P-gp catalyzed ATP hydrolysis, but also to potentially infer whether a compound might be a transport substrate if basal ATPase rates are stimulated by the addition of a compound.

[3] = biological target: Normal Human MDR1 P-glycoprotein (Homo sapiens, UniProt P08183); test: ATP hydrolysis by human P-gp assembled into membrane nanodiscs; type: biochemical; details: human MDR1 P-gp in nanodiscs
Chain of Normal Human MDR1 P-glycoprotein (P08183 whole entry): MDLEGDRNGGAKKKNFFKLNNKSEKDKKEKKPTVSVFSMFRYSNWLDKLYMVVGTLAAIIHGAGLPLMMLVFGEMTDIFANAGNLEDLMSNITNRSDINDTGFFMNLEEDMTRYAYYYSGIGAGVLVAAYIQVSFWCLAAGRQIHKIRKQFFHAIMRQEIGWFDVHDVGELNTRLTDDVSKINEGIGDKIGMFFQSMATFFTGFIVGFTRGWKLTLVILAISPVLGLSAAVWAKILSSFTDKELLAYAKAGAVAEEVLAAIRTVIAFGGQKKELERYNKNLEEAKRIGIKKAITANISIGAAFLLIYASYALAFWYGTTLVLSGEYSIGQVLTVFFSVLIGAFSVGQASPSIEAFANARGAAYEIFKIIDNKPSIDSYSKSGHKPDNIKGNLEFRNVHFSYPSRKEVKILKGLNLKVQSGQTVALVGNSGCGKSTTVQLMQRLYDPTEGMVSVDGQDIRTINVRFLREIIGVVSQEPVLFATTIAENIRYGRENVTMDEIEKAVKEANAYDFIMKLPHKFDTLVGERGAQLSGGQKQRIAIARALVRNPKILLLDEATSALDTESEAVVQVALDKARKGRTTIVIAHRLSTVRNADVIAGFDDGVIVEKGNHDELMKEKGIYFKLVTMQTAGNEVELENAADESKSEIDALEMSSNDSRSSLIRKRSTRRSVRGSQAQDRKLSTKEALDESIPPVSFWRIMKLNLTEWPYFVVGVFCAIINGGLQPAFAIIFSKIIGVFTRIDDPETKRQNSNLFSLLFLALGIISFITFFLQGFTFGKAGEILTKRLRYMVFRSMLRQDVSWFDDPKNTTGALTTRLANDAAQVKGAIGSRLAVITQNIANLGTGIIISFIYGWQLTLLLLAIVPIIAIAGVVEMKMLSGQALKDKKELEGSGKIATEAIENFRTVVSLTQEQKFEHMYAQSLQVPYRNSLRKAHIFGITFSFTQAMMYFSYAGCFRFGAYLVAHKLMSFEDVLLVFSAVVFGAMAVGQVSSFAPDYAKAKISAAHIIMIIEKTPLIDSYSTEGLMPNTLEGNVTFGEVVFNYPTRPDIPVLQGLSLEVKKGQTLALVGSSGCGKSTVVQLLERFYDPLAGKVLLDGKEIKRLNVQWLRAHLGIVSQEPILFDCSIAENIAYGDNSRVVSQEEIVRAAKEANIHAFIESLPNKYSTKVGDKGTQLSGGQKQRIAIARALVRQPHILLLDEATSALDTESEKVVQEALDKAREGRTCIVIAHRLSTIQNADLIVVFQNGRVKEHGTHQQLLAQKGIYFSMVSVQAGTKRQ
Source text: To assess whether the observed discrepancies of compounds stimulating basal P-gp ATPase activity but not being transport substrates of the human pump in the cell culture assessments were due to the fact that these biochemical assays used a cysteineless variant of the mouse MDR3 P-glycoprotein, the experiments were repeated using normal human MDR1 P-gp. In order to stabilize the human protein for the activity assays, the protein was assembled into membrane nanodiscs as described herein.

DU145TXR = test: Resensitization of DU145TXR to paclitaxel by 29 variants (MTT cell viability); type: cell-based, human; details: for Fold vs PTX ÷ 29: compared to parental compound 29
Source text: The Group 1 ChemGen/docking routine produced variants of P-gp inhibitor 29 resensitize a multidrug resistant, P-gp overexpressing prostate cancer cell line to paclitaxel. The mitochondrial reduction potential of cells is often used as an indicator for cell viability using MTT assays^40-42. Using these assays it was observed that the five Group 1 derivatives of 29 predicted through the ChemGen/docking routine and synthesized here, 216, 227, 231, 541 and 551, re-sensitized the P-gp overexpressing prostate cancer cell line, DU145TXR^33, to the chemotherapeutic, paclitaxel (FIG. 9, showing results of assays at concentrations of 3 μM, 5 μM, 7 μM, and 10 μM).
Cytotoxicity of the chemotherapeutic, paclitaxel (PTX) to P-gp overexpressing prostate cancer cells, DU145TXR, was determined in the absence and presence of the ChemGen designed 29-variants, 216, 227, 231, 541 and 551. For each experimental compound IC50 values of PTX alone or in the presence of inhibitors, fold improvement of PTX sensitivity in the presence of inhibitor, and fold improvement of PTX sensitivity by variants compared to parental compound 29 are given.

[4] = 3 μM inhibitor, fold improvement of PTX sensitivity vs PTX alone

Chain of P-gp (P08183 whole entry): as above

`COc1cc(NC(=O)CSCC(=O)Nc2cc(-c3cc(C)c(C)cc3C)nn2-c2ccccc2)cc(OC)c1OC` [SMU29-238] was tested, and the “Intracellular accumulation in the presence versus absence of TQR” value (P-gp) was “very large and significant increase”, the “Transport substrate for P-gp” value (P-gp) was “very likely to be transport substrates” and the “Maximum ATP binding mol SL-ANP bound/mol P-gp” value [1] was 1.2 ± 0.1 mol SL-ANP bound/mol P-gp. The “Stimulated ATPase (% of DMSO)” value [2] was 194 ± 22 % of DMSO, the “Basal ATPase (% of DMSO)” value [2] was 1143 ± 46 % of DMSO and the “Basal ATPase (% of DMSO)” value [3] was 89 ± 7 % of DMSO. The “Stimulated ATPase (% of DMSO)” value [3] was 61 ± 7 % of DMSO.
`Cc1cc(C)c(-c2cc(NC(=O)CSCC(=O)NC(c3ccccc3)c3ccccc3)n(-c3ccccc3)n2)cc1C` [SMU29-280] was tested, and the “Intracellular accumulation in the presence versus absence of TQR” value (P-gp) was “did not show significantly different intracellular accumulations”, the “Maximum ATP binding mol SL-ANP bound/mol P-gp” value [1] was 1.6 ± 0.1 mol SL-ANP bound/mol P-gp and the “Stimulated ATPase (% of DMSO)” value [2] was 116 ± 4 % of DMSO. For the same compound, the “Effect on basal ATPase” value ([2]; listed as 280) was “stimulated basal ATPase only marginally or with no statistical significance”, the “Basal ATPase (% of DMSO)” value [2] was 148 ± 4 % of DMSO and the “Basal ATPase (% of DMSO)” value [3] was 76 ± 8 % of DMSO. The “Stimulated ATPase (% of DMSO)” value [3] was 54 ± 7 % of DMSO.
In the case of `COc1cccc2c1C(=O)c1c(O)c3c(c(O)c1C2=O)C[C@@](O)(C(C)=O)C[C@@H]3O[C@H]1C[C@H](N)[C@H](O)[C@H](C)O1` [DNR, Daunorubicin, reference compound], the “Intracellular accumulation in the presence versus absence of TQR” value (P-gp) is reported as “very strong cellular accumulation”.
In the case of `Cc1cc(C)c(-c2cc(NC(=O)CSCC(=O)Nc3ccc4ncsc4c3)n(-c3ccccc3)n2)cc1C` [SMU29-255], the “Intracellular accumulation in the presence versus absence of TQR” value (P-gp) is reported as “more modest, but statistically significant increases”, the “Transport substrate for P-gp” value (P-gp) is reported as “very likely to be transport substrates” and the “Maximum ATP binding mol SL-ANP bound/mol P-gp” value [1] is reported as 1.9 ± 0.1 mol SL-ANP bound/mol P-gp. The “Stimulated ATPase (% of DMSO)” value [2] was 123 ± 15 % of DMSO, the “Basal ATPase (% of DMSO)” value [2] was 355 ± 7 % of DMSO and the “Basal ATPase (% of DMSO)” value [3] was 84 ± 9 % of DMSO. The “Stimulated ATPase (% of DMSO)” value [3] was 59 ± 6 % of DMSO.
`Cc1cc(C)c(-c2cc(NC(=O)CSCC(=O)Nc3ccc4ccccc4c3)n(-c3ccccc3)n2)cc1C` [SMU29-231] was tested, and the “Maximum ATP binding mol SL-ANP bound/mol P-gp” value [1] was 1.6 ± 0.1 mol SL-ANP bound/mol P-gp, the “Stimulated ATPase (% of DMSO)” value [2] was 141 ± 18 % of DMSO and the “Basal ATPase (% of DMSO)” value [2] was 70 ± 0 % of DMSO. The “Fold vs PTX ÷ 29” value (DU145TXR; 3 μM inhibitor, listed as 231) was 4.1 Fold, the “Fold vs PTX” value (DU145TXR; [4]) was 14 Fold and the “Fold vs PTX ÷ 29” value (DU145TXR; 5 μM inhibitor) was 4.2 Fold. The “Fold vs PTX” value (DU145TXR; 5 μM inhibitor, vs PTX alone) was 46 Fold, the “Fold vs PTX ÷ 29” value (DU145TXR; 7 μM inhibitor) was 3.4 Fold and the “Fold vs PTX” value (DU145TXR; 7 μM inhibitor, vs PTX alone) was 303 Fold. For the same compound, the “Fold vs PTX ÷ 29” value (DU145TXR; 10 μM inhibitor) was 11 Fold, the “Fold vs PTX” value (DU145TXR; 10 μM inhibitor, vs PTX alone) was 1060 Fold and the “Basal ATPase (% of DMSO)” value [3] was 70 ± 4 % of DMSO. For the same compound, the “Stimulated ATPase (% of DMSO)” value [3] was 40 ± 3 % of DMSO.
In the case of `Cc1cc(C)c(-c2cc(NC(=O)CSCC(=O)NC34CC5CC(CC(C5)C3)C4)n(-c3ccccc3)n2)cc1C` [SMU29-278], the “Intracellular accumulation in the presence versus absence of TQR” value (P-gp) is reported as “did not show significantly different intracellular accumulations”, the “Transport substrate for P-gp” value (P-gp) is reported as “very unlikely to be a transport substrate” and the “Maximum ATP binding mol SL-ANP bound/mol P-gp” value [1] is reported as 1.3 ± 0.1 mol SL-ANP bound/mol P-gp. For the same compound, the “Stimulated ATPase (% of DMSO)” value [2] was 41 ± 7 % of DMSO, the “Basal ATPase (% of DMSO)” value [2] was 78 ± 4 % of DMSO and the “Basal ATPase (% of DMSO)” value [3] was 74 ± 6 % of DMSO. The “Stimulated ATPase (% of DMSO)” value [3] was 63 ± 6 % of DMSO.
`Cc1cc(C)c(-c2cc(NC(=O)CSCC(=O)N3c4ccccc4CCc4ccccc43)n(-c3ccccc3)n2)cc1C` [SMU29-227] was tested, and the “Maximum ATP binding mol SL-ANP bound/mol P-gp” value [1] was 1.8 ± 0.1 mol SL-ANP bound/mol P-gp, the “Stimulated ATPase (% of DMSO)” value [2] was 50 ± 2 % of DMSO and the “Basal ATPase (% of DMSO)” value [2] was 88 ± 4 % of DMSO. The “Fold vs PTX ÷ 29” value (DU145TXR; 3 μM inhibitor, listed as 227) was 3.8 Fold, the “Fold vs PTX” value (DU145TXR; [4]) was 13 Fold and the “Fold vs PTX ÷ 29” value (DU145TXR; 5 μM inhibitor) was 3.7 Fold. The “Fold vs PTX” value (DU145TXR; 5 μM inhibitor, vs PTX alone) was 41 Fold, the “Fold vs PTX ÷ 29” value (DU145TXR; 7 μM inhibitor) was 10 Fold and the “Fold vs PTX” value (DU145TXR; 7 μM inhibitor, vs PTX alone) was 353 Fold. The “Fold vs PTX ÷ 29” value (DU145TXR; 10 μM inhibitor) was 5 Fold, the “Fold vs PTX” value (DU145TXR; 10 μM inhibitor, vs PTX alone) was 530 Fold and the “Basal ATPase (% of DMSO)” value [3] was 83 ± 7 % of DMSO. The “Stimulated ATPase (% of DMSO)” value [3] was 62 ± 5 % of DMSO.
In the case of `Cc1cc(C)c(-c2cc(NC(=O)CSCC(=O)NCc3ccc(F)cc3)n(-c3ccccc3)n2)cc1C` [SMU29-286], the “Intracellular accumulation in the presence versus absence of TQR” value (P-gp) is reported as “more modest, but statistically significant increases”, the “Transport substrate for P-gp” value (P-gp) is reported as “very likely to be transport substrates” and the “Maximum ATP binding mol SL-ANP bound/mol P-gp” value [1] is reported as 1.9 ± 0.1 mol SL-ANP bound/mol P-gp. For the same compound, the “Stimulated ATPase (% of DMSO)” value [2] was 98 ± 2 % of DMSO, the “Effect on basal ATPase” value ([2]; listed as 286) was “stimulated basal ATPase only marginally or with no statistical significance” and the “Basal ATPase (% of DMSO)” value [2] was 143 ± 32 % of DMSO. For the same compound, the “Basal ATPase (% of DMSO)” value [3] was 95 ± 3 % of DMSO and the “Stimulated ATPase (% of DMSO)” value [3] was 59 ± 4 % of DMSO.
